Measured values reported in US6624163B2, “Benzothiazole derivatives” (Hoffman-La Roche Inc., priority 2001, dated 2003).

Biological target: T1, human adenosine A2A receptor (Homo sapiens, UniProt P29274)
T1 construct: expressed in transfected cells; host or cells: CHO cells, semliki forest virus expression system; membrane preparation
Test: [3H]-SCH-58261 binding assay, human adenosine A2A receptor expressed in CHO cell membranes (SPA)
Details: [3H]-SCH-58261 (1 nM) displacement; recombinant receptor in CHO cell membranes; Ki by Cheng-Prussoff from IC50; read-out: hA2 (pKi) (converted)
Method: Human Adenosine A2A Receptor
The human adenosine A2A receptor was recombinantly expressed in chinese hamster ovary (CHO) cells using the semliki forest virus expression system. Cells were harvested, washed twice by centrifugation, homogenised and again washed by centrifugation. The final washed membrane pellet was suspended in a Tris (50 mM) buffer containing 120 mM NaCl, 5 mM KCl, 2 mM CaCl2 and 10 mM MgCl2 (pH 7.4) (buffer A). The [^3H]-SCH-58261 (Dionisotti et al., 1997, Br J Pharmacol 121, 353; 1 nM) binding assay was carried out in 96-well plates in the presence of 2.5 μg of membrane protein, 0.5 mg of Ysi-poly-1-lysine SPA beads and 0.1 U adenosine deaminase in a final volume of 200 μl of buffer A. Non-specific binding was defined using xanthine amine congener (XAC; 2 μM). Compounds were tested at 10 concentrations from 10 μM −0.3 nM. All assays were conducted in duplicate and repeated at least two times. Assay plates were incubated for 1 hour at room temperature before centrifugation and then bound ligand determined using a Packard Topcount scintillation counter. IC50 values were calculated using a non-linear curve fitting program and Ki values calculated using the Cheng-Prussoff equation.

T1 sequence (P29274 whole entry): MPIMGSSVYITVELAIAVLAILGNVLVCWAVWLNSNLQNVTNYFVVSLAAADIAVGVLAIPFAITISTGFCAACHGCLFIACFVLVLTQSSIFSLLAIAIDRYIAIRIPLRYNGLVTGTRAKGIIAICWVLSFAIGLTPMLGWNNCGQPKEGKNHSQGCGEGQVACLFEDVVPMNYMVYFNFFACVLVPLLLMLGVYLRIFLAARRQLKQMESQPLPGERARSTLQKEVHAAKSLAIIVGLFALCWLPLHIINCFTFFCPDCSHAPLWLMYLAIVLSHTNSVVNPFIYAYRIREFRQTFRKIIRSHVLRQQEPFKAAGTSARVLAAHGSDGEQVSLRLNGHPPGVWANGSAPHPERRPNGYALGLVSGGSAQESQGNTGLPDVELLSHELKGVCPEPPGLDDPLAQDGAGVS

Structure (SMILES)	Ki [nM]
COc1ccc(N2CCOCC2)c2sc(NC(=O)c3ccc(CNC(=O)C4CC4)cc3)nc12 [Example 9, 4-[(Cyclopropanecarbonyl-amino)-methyl]-N-(4-methoxy-7-morpholin-4-yl-benzothiazol-2-yl)-benzamide]	1
COc1ccc(N2CCOCC2)c2sc(NC(=O)c3ccc(CN(C)C(C)=O)cc3)nc12 [Example 10, 4-[(Acetyl-methyl-amino)-methyl]-N-(4-methoxy-7-morpholin-4-yl-benzothiazol-2-yl)-benzamide]	1
COc1ccc(N2CCOCC2)c2sc(NC(=O)c3ccc(CN(C)C(=O)C4CC4)cc3)nc12 [Example 4, 4-[(Cyclopropanecarbonyl-methyl-amino)-methyl]-N-(4-methoxy-7-morpholin-4-yl-benzothiazol-2-yl)-benzamide]	0.631
CCC(=O)N(CC)Cc1ccc(C(=O)Nc2nc3c(OC)ccc(N4CCOCC4)c3s2)cc1 [Example 14, 4-[(Ethyl-propionyl-amino)-methyl]-N-(4-methoxy-7-morpholin-4-yl-benzothiazol-2-yl)-benzamide]	1.26
COc1ccc(N2CCOCC2)c2sc(NC(=O)c3ccc(CNC(C)=O)cc3)nc12 [Example 12, 4-(Acetylamino-methyl)-N-(4-methoxy-7-morpholin-4-yl-benzothiazol-2-yl)-benzamide]	0.794
COc1ccc(N2CCOCC2)c2sc(NC(=O)c3ccc(CN(C)C(=O)CN(C)C)cc3)nc12 [Example 15, 4-[(Dimethylaminoacetyl-methyl-amino)-methyl]-N-(4-methoxy-7-morpholin-4-yl-benzothiazol-2-yl)-benzamide]	1.26
COc1ccc(N2CCOCC2)c2sc(NC(=O)c3ccc(CN(C)C(=O)CN4CCCC4)cc3)nc12 [Example 19, N-(4-Methoxy-7-morpholin-4-yl-benzothiazol-2-yl)-4-{[methyl-(pyrrolidin-1-yl-acetyl)-amino]-methyl}-benzamide]	1.58
CCC(=O)N(C)Cc1ccc(C(=O)Nc2nc3c(OC)ccc(N4CCOCC4)c3s2)cc1 [Example 6, N-(4-Methoxy-7-morpholin-4-yl-benzothiazol-2-yl)-4-[(methyl-propionyl-amino)-methyl]-benzamide]	0.631
COCC(=O)N(C)Cc1ccc(C(=O)Nc2nc3c(OC)ccc(N4CCOCC4)c3s2)cc1 [Example 2, 4-[(Methoxyacetyl-methyl-amino)-methyl]-N-(4-methoxy-7-morpholin-4-yl-benzothiazol-2-yl)-benzamide]	1.26
COc1ccc(N2CCOCC2)c2sc(NC(=O)c3ccc(CN(C)C(=O)C4CCC4)cc3)nc12 [Example 5, 4-[(Cyclobutanecarbonyl-methyl-amino)-methyl]-N-(4-methoxy-7-morpholin-4-yl-benzothiazol-2-yl)-benzamide]	0.794
CCC(=O)NCc1ccc(C(=O)Nc2nc3c(OC)ccc(N4CCOCC4)c3s2)cc1 [Example 7, N-(4-Methoxy-7-morpholin-4-yl-benzothiazol-2-yl)-4-(propionylamino-methyl)-benzamide]	1
COCC(=O)NCc1ccc(C(=O)Nc2nc3c(OC)ccc(N4CCOCC4)c3s2)cc1 [Example 1, 4-[(2-Methoxy-acetylamino)-methyl]-N-(4-methoxy-7-morpholin-4-yl-benzothiazol-2-yl)-benzamide]	0.794
COc1ccc(N2CCOCC2)c2sc(NC(=O)c3ccc(CNC(=O)C4CCC4)cc3)nc12 [Example 11, 4-[(Cyclobutanecarbonyl-amino)-methyl]-N-(4-methoxy-7-morpholin-4-yl-benzothiazol-2-yl)-benzamide]	0.501

Test system: not given
Test: not given
Details: not given

Structure (SMILES)	melting point [°C]
COCCN(C)CC(=O)N(C)Cc1ccc(C(=O)Nc2nc3c(OC)ccc(N4CCOCC4)c3s2)cc1 [Example 18, 4-[({[(2-Methoxy-ethyl)-methyl-amino]-acetyl}-methyl-amino)-methyl]-N-(4-methoxy-7-morpholin-4-yl-benzothiazol-2-yl)-benzamide]	171 to 173
COc1ccc(N2CCOCC2)c2sc(NC(=O)c3ccc(CN(C)C(=O)CN4CCCC4)cc3)nc12 [Example 19, N-(4-Methoxy-7-morpholin-4-yl-benzothiazol-2-yl)-4-{[methyl-(pyrrolidin-1-yl-acetyl)-amino]-methyl}-benzamide]	114 to 116
